What was measured:
Assay in all cases: Cysteine liganding, probe competition
Assay type in all cases: binding
[1] = molecular target: T1, NOC2L Nucleolar complex protein 2 homolog (Homo sapiens, UniProt Q9Y3T9)
T1 construct: Cells were resuspended in cold PBS on ice and sonicated with a probe sonicator to achieve lysis; endogenous in cells
Outline: (§1)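 Probe competition in native proteome: 5 mg/ml lysate, compound 1 hr 25° C, then desthiobiotin iodoacetamide (10 mM stock) 1 hr 25° C; acetone ppt, urea/DTT reduction, iodoacetamide alkylation, trypsin, streptavidin pull-down.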

[2] = molecular target: T2, IDH2 Isocitrate dehydrogenase (Homo sapiens, UniProt P48735)
T2 construct: Cells were resuspended in cold PBS on ice and sonicated with a probe sonicator to achieve lysis; endogenous in cells
T2 sequence (P48735 40-452): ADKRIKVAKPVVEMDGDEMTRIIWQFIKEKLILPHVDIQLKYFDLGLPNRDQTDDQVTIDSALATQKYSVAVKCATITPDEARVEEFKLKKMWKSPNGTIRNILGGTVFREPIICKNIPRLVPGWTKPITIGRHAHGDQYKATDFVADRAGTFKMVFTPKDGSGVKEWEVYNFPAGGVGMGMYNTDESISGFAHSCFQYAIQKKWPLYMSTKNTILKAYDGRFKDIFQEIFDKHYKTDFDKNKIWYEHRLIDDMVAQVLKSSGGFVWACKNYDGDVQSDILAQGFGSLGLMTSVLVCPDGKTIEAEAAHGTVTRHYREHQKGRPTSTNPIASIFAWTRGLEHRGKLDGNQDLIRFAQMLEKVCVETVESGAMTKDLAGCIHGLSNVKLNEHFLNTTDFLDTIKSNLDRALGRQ
Outline: as §1

[3] = molecular target: T3, CKB Creatine kinase B-type (Homo sapiens, UniProt P12277)
T3 construct: 200 μL of lysate containing 5 mg/ml proteome was treated with 2 μL of 100× compound stock; endogenous in cells
Outline: as §1

[4] = molecular target: T4, NUBP1 Cytosolic Fe—S cluster assembly factor NUBP1 (Homo sapiens, UniProt P53384); settings: for Liganded: NUBP1 Res# 31, uniprot P53384
T4 construct: Cells were resuspended in cold PBS on ice and sonicated with a probe sonicator to achieve lysis; endogenous in cells
T4 sequence (P53384 1-320): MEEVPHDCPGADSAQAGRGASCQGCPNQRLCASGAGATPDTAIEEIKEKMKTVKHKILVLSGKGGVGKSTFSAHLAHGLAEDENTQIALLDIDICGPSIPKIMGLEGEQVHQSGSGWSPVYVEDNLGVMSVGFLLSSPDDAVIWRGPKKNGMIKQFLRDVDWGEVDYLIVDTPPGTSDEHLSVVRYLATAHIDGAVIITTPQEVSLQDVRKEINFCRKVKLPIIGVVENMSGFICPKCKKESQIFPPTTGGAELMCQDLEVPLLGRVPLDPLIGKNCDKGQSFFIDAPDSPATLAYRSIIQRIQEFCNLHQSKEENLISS
Outline: as §1

T3 sequence (P12277 whole entry): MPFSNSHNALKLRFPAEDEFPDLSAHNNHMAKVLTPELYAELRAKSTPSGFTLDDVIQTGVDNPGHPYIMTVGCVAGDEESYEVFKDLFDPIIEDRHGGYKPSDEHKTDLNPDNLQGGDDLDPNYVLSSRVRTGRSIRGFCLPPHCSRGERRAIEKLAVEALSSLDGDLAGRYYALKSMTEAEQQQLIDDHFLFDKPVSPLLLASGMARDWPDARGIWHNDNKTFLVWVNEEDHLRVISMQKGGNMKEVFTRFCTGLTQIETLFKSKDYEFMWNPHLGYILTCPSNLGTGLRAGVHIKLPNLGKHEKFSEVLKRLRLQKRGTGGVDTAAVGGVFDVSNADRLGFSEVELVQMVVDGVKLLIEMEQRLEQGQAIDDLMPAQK

Row | SMILES | Liganded ([1]; NOC2L Res# 585, uniprot Q9Y3T9) | Liganded ([2]; IDH2 Res# 154, uniprot P48735) | Liganded ([3]; CKB Res# 283, uniprot P12277) | Liganded [4] | 100 Max ([1]; uniprot Q9Y3T9) | 100 ave ([1]; uniprot Q9Y3T9) | 500 Max ([1]; uniprot Q9Y3T9) | 500 ave ([1]; uniprot Q9Y3T9) | 100 Max ([2]; uniprot P48735) | 100 ave ([2]; uniprot P48735) | 500 Max ([2]; uniprot P48735) | 500 ave ([2]; uniprot P48735) | 100 Max ([3]; uniprot P12277) | 100 ave ([3]; uniprot P12277) | 500 ave ([3]; uniprot P12277) | 500 Max ([3]; uniprot P12277, in % (unit assumed)) | 100 ave ([4]; uniprot P53384) | 500 Max ([4]; uniprot P53384) | 500 ave ([4]; uniprot P53384) | 100 Max ([4]; uniprot P53384, in % (unit assumed))
1 | COc1ccc2c(c1)CCCN2C(=O)CCl [KB02] | YES | YES | YES | YES | – | – | – | – | – | – | – | – | – | – | – | – | – | – | – | –
2 | O=C(CCl)Nc1cc(C(F)(F)F)cc(C(F)(F)F)c1 [KBO3] | – | – | – | YES | 29.97 | 7.195 | 59.2 | 56.82 | 63.35 | 43.06 | 73.43 | 70.11 | 23.24 | 15.155 | 71.73 | 71.73 | 7.3775 | 75.8 | 55.66 | 28.64

Source: patent publication US20200239530A1, “COMPOUNDS AND METHODS OF MODULATING PROTEIN DEGRADATION” (Vividion Therapeutics, Inc., priority 2017, published 2020)
